Test results taken from patent US7199286B2, “Plant-derived novel pathogen and SAR-induction chemical induced promoters, and fragments thereof” (Syngenta Participations AG, priority 1999, dated 2007).

Test system: Arabidopsis PR1 promoter
Experiment: GUS florescence assay of promoter::GUS plants after SA application, Arabidopsis PR1 promoter
Format: in vivo
Conditions: 5 mM SA spray
Description: A binary promoter::reporter plasmid (pNOV2374) for Arabidopsis transformation was constructed. The regulatory/promoter sequence was fused to the GUS reporter gene (Jefferson et al. (1987) EMBO J 6: 3901-3907) by recombination using […] Technology according to the manufacturer's protocol as described in the Instruction Manual (LifeTechnologies, Rockville, Md.). The construct was then transformed into Agrobacterium tumefaciens strains by electroporation. pNOV2374 is a binary vector with a VS1 origin of replication, a copy of the Agrobacterium virg gene in the backbone, and a Basta® resistance selectable marker cassette between the left and right border sequences of the T-DNA. The Basta® selectable marker cassette comprises the Agrobacterium tumefaciens manopine synthase promoter (AtMas) (Barker et al., Plant Mol. Biol. 2, 335-350 (1983)) operably linked to the gene encoding Basta® resistance (i.e., the “BAR” gene, phosphinothricin acetyl transferase) (White et al., Nucl Acids Res 18: 1062 (1990)) and the 35S terminator. The AtMas promoter, the BAR coding sequence, and the 35S terminator are located at nt 4211 to nt 4679, nt 4680 to nt 5228, and nt 5263 to nt 5488, respectively, of pNOV2374. The vector contains […] recombination components, which were introduced into the binary vector backbone by ligating a blunt-ended cassette containing attR sites, ccdB, and a cholramphenicol resistance marker using the […] Vector Conversion System (LifeTechnologies, Rockville, Md.). The […] cassette was located between nt 126 and 1818 of pNOV2374. The promoter cassettes were inserted through an LR recombination reaction whereby the DNA sequence of pNOV2374 between nt 126 and nt 1818 were removed and replaced with the promoter of interest flanked by att sequences. […] The GIG gene (SEQ ID NO:29) contains the ST-LS1 intron from Solanum tuberosum at nt 385 to nt 576 of GUS (obtained from Dr. Stanton […], Purdue University, and described in Narasimhulu, et al. (1996) Plant Cell 8: 873-886.). The orientation of the selectable marker and promoter-reporter cassettes in the binary vector construct was as follows: For the purpose of comparing promoter activity, additional constructs were produced with the known Arabidopsis PR1 (SEQ ID NO:30) and SMAS (SEQ ID NO:31) promoters (see Plant J. 16 (2) 223-233 (1998) and Plant Mol. Biol. 20 (2) 219-233 (1992), respectively) operatively linked to the GIG gene (SEQ ID NO:29) and the […]. […] The treatment was applied as a fine mist to the leaves. […] For quantitative analysis of promoter activity following induction treatments or in various Arabidopsis tissues and organs, GUS expression is measured florometrically. Tissue samples were harvested and ground in ice cold GUS extraction buffer (50 mM Na2HPO4 pH 7.0, 5 mM DTT, 1 mM Na2EDTA, 0.1% TritonX100, 0.1% sarcosyl). Ground samples were spun in a microfuge at 10,000 rpm for 15 minutes at 4° C. Following centrifugation, the supernatant was removed for the GUS assay and for a protein concentration determination. To measure GUS activity, the plant extract was assayed in GUS assay buffer (50 mM Na2HPO4 pH 7.0, 5 mM DTT, 1 mM Na2EDTA, 0.1% TritonX100, 0.1% sarcosyl, 1 mM 4-Methylumbelliferyl-beta-D-glucuronic acid dihydrate (MUG)), pre-warmed to 37° C. Reactions were incubated, and 100 uL aliquots were removed at 10 minute intervals over 30 minutes to stop the reaction by adding the 100 uL aliquots to tubes containing 900 uL of 2% Na2CO3. The stopped reactions were then read on a Tecan Spectroflourometer at 365 nm excitation and 455 emission wavelengths. Protein concentrations were determined using the BCA assay following the manufacturer's protocol. GUS activity is expressed as pmol MU/mg protein/min.

O=C(O)c1ccccc1O [SA, salicylic acid]
GUS Activity Induced by SA (2 h): 57.7 pmol/mg protein/min | GUS activity Fold-change relative to T0 (uninduced) (2 h): 3.4 fold | GUS Activity Induced by SA (4 h): 254.7 pmol/mg protein/min | GUS activity Fold-change relative to T0 (uninduced) (4 h): 15.2 fold | GUS Activity Induced by SA (8 h): 206.5 pmol/mg protein/min | GUS Activity Induced by SA (24 h): 393.1 pmol/mg protein/min | GUS activity Fold-change relative to T0 (uninduced) (24 h): 23.4 fold
